Assay results taken from patent US12527874B2, “Bioorthogonal compositions” (TAMBO, INC., priority 2015, dated 2026).

Key:
HT1080 cells = assay: MTT cytotoxicity assay; conditions: read-out: 50% growth inhibitory concentration (IC50), 48 h treatment followed by additional 48 h in DMEM
Protocol: Cells were treated with the drug or the pro-drug for 48 h, followed by additional 48 h in DMEM, prior to measuring their viability.
HT1080 cells were purchased from ATCC (cat. #CCL-121), and propagated in Dulbecco's modified Eagle's medium (DMEM; Meditech, Inc. Corning, Manassas, VA) containing 5% fetal bovine serum (FBS; HyClone, Logan Utah), supplemented with 100 U/ml penicillin, and 100 μg/ml streptomycin (Life Tech Corp., Grand Island, NY) at 37° C. in a 5% CO2 incubator.
Day one: using 96-well format, plated˜100 cells/well in 100 μL DMEM and incubated for 24 h. […] Day four: the medium was replaced with 100 μL of fresh DMEM and the cells were incubated for 48 h. Day six: DMEM was removed and the cells were incubated with 100 μL of MTT solution (0.6 mg/mL in DMEM) per well for 4 h at 37° C. The MTT solution was then replaced with 100 μL of DMSO containing 4% aqueous ammonia per well to dissolve the purple formazan crystals. After 30 min, the absorbance of each well at 550 nm was recorded using BioTek Synergy HT multi detection microplate reader. Results were averaged from three independent arrays of triplicate experiments.

[1] = test system: human soft tissue sarcoma (HT-1080) xenografts; assay: Inhibition of HT1080 xenograft growth (soft tissue sarcoma model, HMT injected near tumor); format: in vivo, mice
Protocol: HMT was injected near the palpable soft tissue sarcoma tumors after 18 days when their size reached an average of 195 mm3 (range, 90-500 mm3). The mice were separated into two cohorts: (i) 3 intravenous doses of 14 μmoles/kg of doxorubicin every 4 days (maximum tolerable dose), (27, 49) or (ii) daily doses of 14 μmoles/kg of doxorubicin for 10 days (FIG. 18B). Tumor volumes were measured twice a week for 13 weeks (FIG. 18A). No further therapies were given to the subjects 28 days post tumoral implantation (dpi).

[2] = 3 days after the last treatment, after injection of HMT
Protocol: Samples were collected 3 days after the last treatment. Data are means±SD (n=2).
Reticulocyte measurements. Two mice per condition were anesthetized with isoflurane anesthesia 3 days after the last treatment during the nadir of reticulocyte decrease. (27) Blood was collected by cardiac puncture in a syringe containing lithium heparin to prevent coagulation. RBC and reticulocyte concentrations were determined the same day using a DEXX ProCyte Dx Hematology Analyzer (IDEXX Laboratories, Inc.).

[3] = xenograft mice, HMT injected

Q: For `COc1cccc2c1C(=O)c1c(O)c3c(c(O)c1C2=O)C[C@@](O)(C(=O)CO)C[C@@H]3O[C@H]1C[C@H](N)[C@H](O)[C@H](C)O1` [doxorubicin], which IC50 (HT1080 cells) is on record?
A: Its IC50 is 18 nM.

Q: What about the median tumor size ([1]; 2 weeks after the last treatment dose (40 dpi), HMT near tumor) of the same compound?
A: The median tumor size was “undetectable”.

Q: What about the “mice with a mild response” value ([1]; 40 dpi, HMT near tumor) of the same compound?
A: The value was 1/5.

Q: What about the median tumor size ([1]; 30 days after the last treatment dose (60 dpi), HMT near tumor) of the same compound?
A: The median tumor size was “greater than 2000 mm^3”.

Q: And the “mice that reached the study endpoint of 2000 mm3” value ([1]; by 88 dpi)?
A: Its value is 5/5.

Q: And the reticulocyte counts [2]?
A: Its reticulocyte counts is “dramatic decrease in reticulocytes”.

Q: What about the body weight lost [3] of the same compound?
A: Its body weight lost is “about 20%”.
